Experimental data published in patent US20080274987A1, “Novel alpha glucosidase activator, pulicarside 1” (HEJ Research Institute, priority 2006, published 2008).
Like-named read-outs stand apart in the source and are kept apart here.

Key:
[1] = biological target: α-glucosidase (E.C.3.2.1.20); test: α-Glucosidase enzyme inhibition assay (PNP-G substrate, spectrophotometric); format: biochemical, Saccharomyces species
Description: (§1) α-Glucosidase (E.C.3.2.1.20) enzyme inhibition assay was performed according to the slightly modified method of Matsui et al. α-glucosidase (E.C.3.2.1.20) from Saccharomyces species, purchased from Wako Pure Chemical Industries Ltd. (Wako 076-02841). The enzyme inhibition was measured spectrophotometrically at pH 6.9 and at 37° C. using 0.7 mM p nitrophenyl-α-D-glucopyranoside (PNP-G) as a substrate and 500 m units/mL enzyme, in 50 mM sodium phosphate buffer containing 100 mM NaCl. […] The increment in absorption at 400 nm, due to the hydrolysis of PNP-G by α-glucosidase, was monitored continuously on microplate spectrophotometer (Spectra Max Molecular Devices, USA).
[T. Matsui, C. Yoshimoto, K. Osajima, T. Oki, and Y. Osajima. Biosci. Biotech. Biochem., 1996, 60, 2019].

α-glucosidase = test: Rate of α-glucosidase enzyme reaction as a function of incubation time and concentration of Compound 1; format: biochemical, Saccharomyces species
Description: as §1
Several unique observations were made during the studies conducted on Compound 1 activity. For example, it was observed that the enzyme generally looses its activity during the operational period. We have a set of experiment to see how the enzyme lost its activity with almost all activity gone within one hour. (Table 2).
As a result we conclude that the activity of Compound 1 is concentration dependent. The mechanism postulated here includes enhancement of stability of the enzyme to react with the substrate, which is not observed in negative control in the absence of this compound 1. From the structures it is clearly evidenced that the methylene-dioxy ring and as well as the sugar molecule is responsible for the enzyme activation. […] So the COO— group is playing a crucial role for the inhibitory effect on the enzyme and the gugar molecule and methylene-dioxy ring is responsible for the activation of the enzyme.

[2] = against α-glucosidase, pH 6.9, 37° C., 0.7 mM PNP-G, read-out: IC50 ± SEM
[3] = unit inferred, read-out: IC50 (inhibitory effect on the enzyme)

Row | Structure (SMILES) | IC50 [1, 2] | IC50 [1, 3] | IC50 ± SEM ([1]; against α-glucosidase, pH 6.9, 37° C., 0.7 mM PNP-G) | Rate of enzyme reaction (μM of alpha-glucose from the p-nitrophenyl at 400 nm) (α-glucosidase; 0.05 mM Compound 1, incubation 4 min) | Rate of enzyme reaction (μM of alpha-glucose from the p-nitrophenyl at 400 nm) (α-glucosidase; 0.05 mM Compound 1, incubation 24 min) | Rate of enzyme reaction (μM of alpha-glucose from the p-nitrophenyl at 400 nm) (α-glucosidase; 0.05 mM Compound 1, incubation 45 min) | Rate of enzyme reaction (μM of alpha-glucose from the p-nitrophenyl at 400 nm) (α-glucosidase; 0.05 mM Compound 1, incubation 66 min) | Rate of enzyme reaction (μM of alpha-glucose from the p-nitrophenyl at 400 nm) (α-glucosidase; 0.10 mM Compound 1, incubation 4 min) | Rate of enzyme reaction (μM of alpha-glucose from the p-nitrophenyl at 400 nm) (α-glucosidase; 0.10 mM Compound 1, incubation 24 min) | Rate of enzyme reaction (μM of alpha-glucose from the p-nitrophenyl at 400 nm) (α-glucosidase; 0.10 mM Compound 1, incubation 45 min) | Rate of enzyme reaction (μM of alpha-glucose from the p-nitrophenyl at 400 nm) (α-glucosidase; 0.10 mM Compound 1, incubation 66 min) | Rate of enzyme reaction (μM of alpha-glucose from the p-nitrophenyl at 400 nm) (α-glucosidase; 0.20 mM Compound 1, incubation 4 min) | Rate of enzyme reaction (μM of alpha-glucose from the p-nitrophenyl at 400 nm) (α-glucosidase; 0.20 mM Compound 1, incubation 24 min) | Rate of enzyme reaction (μM of alpha-glucose from the p-nitrophenyl at 400 nm) (α-glucosidase; 0.20 mM Compound 1, incubation 45 min) | Rate of enzyme reaction (μM of alpha-glucose from the p-nitrophenyl at 400 nm) (α-glucosidase; 0.20 mM Compound 1, incubation 66 min) | Rate of enzyme reaction (μM of alpha-glucose from the p-nitrophenyl at 400 nm) (α-glucosidase; 0.40 mM Compound 1, incubation 4 min) | Rate of enzyme reaction (μM of alpha-glucose from the p-nitrophenyl at 400 nm) (α-glucosidase; 0.40 mM Compound 1, incubation 24 min) | Rate of enzyme reaction (μM of alpha-glucose from the p-nitrophenyl at 400 nm) (α-glucosidase; 0.40 mM Compound 1, incubation 45 min) | Rate of enzyme reaction (μM of alpha-glucose from the p-nitrophenyl at 400 nm) (α-glucosidase; 0.40 mM Compound 1, incubation 66 min) | Effect on α-glucosidase enzymatic activity as compared to the negative control (α-glucosidase; at all the concentrations and time intervals)
1 | C[C@@]12CCC[C@@](C)(C(=O)O[C@@H]3O[C@H](CO)[C@@H](O)[C@H](O)[C@H]3O)[C@H]1CC[C@@]13C[C@@H](CC[C@H]12)[C@@](O)(CO)C3 [Paniculoside IV (2), paniculoside IV] | 407 ± 20 µM | 407 ± 20 µM | – | – | – | – | – | – | – | – | – | – | – | – | – | – | – | – | – | –
2 | C[C@@]12CCC[C@@](C)(C(=O)O)[C@H]1CC[C@@]13C[C@@H](CC[C@H]12)[C@@](O)(CO)C3 (single isomer, unassigned; ent-16) [ent-16,17-dihydroxy-(−)-kauran-19-oic acid] | 62.2 µM | 62.2 ± 0.008 µM | – | – | – | – | – | – | – | – | – | – | – | – | – | – | – | – | – | –
3 | CC1(C)OCC2(C[C@@]34CC[C@H]5[C@@](C)(CCC[C@@]5(C)C(=O)O[C@@H]5O[C@H](CO)[C@@H](O)[C@H](O)[C@H]5O)[C@@H]3CC[C@@H]2C4)O1 (single isomer, unassigned; ent-16) [Pulicarside (1), β-D-glucopyranosyl ent-16,17-acetonyl-(−)-kauran-19-oate] | – | – | Enhancer | 18.61 µM | 8.7 µM | 3.85 µM | 1.45 µM | 19.94 µM | 10.38 µM | 4.64 µM | 1.62 µM | 20.89 µM | 18.27 µM | 13.11 µM | 10.13 µM | 21.15 µM | 19.68 µM | 14.8 µM | 15.01 µM | enhanced the enzymatic activity
